# Assays:
# [1] = molecular target: CB1R (Homo sapiens, UniProt P21554); assay: cell-based; type: cell-based; details: read-out: Emax (% cAMP inhibition), agonist alone
# [2] = molecular target: CB1R (Mus musculus, UniProt P47746)
# CB1R (Mus musculus, UniProt P47746), sequence (P47746 whole entry): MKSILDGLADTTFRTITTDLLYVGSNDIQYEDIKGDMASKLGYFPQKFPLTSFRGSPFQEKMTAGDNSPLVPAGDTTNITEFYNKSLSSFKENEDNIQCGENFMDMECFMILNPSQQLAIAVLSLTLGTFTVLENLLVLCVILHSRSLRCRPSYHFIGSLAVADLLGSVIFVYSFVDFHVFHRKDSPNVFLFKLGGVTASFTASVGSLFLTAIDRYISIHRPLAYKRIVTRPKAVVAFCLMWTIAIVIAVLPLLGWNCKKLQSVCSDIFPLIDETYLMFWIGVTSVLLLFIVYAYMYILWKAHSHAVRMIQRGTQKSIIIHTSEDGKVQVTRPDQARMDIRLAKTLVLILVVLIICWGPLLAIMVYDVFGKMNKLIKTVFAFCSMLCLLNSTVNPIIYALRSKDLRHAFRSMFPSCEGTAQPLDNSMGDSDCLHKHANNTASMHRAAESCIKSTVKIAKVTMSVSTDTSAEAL
# CB1R (Homo sapiens, UniProt P21554), sequence (P21554 whole entry): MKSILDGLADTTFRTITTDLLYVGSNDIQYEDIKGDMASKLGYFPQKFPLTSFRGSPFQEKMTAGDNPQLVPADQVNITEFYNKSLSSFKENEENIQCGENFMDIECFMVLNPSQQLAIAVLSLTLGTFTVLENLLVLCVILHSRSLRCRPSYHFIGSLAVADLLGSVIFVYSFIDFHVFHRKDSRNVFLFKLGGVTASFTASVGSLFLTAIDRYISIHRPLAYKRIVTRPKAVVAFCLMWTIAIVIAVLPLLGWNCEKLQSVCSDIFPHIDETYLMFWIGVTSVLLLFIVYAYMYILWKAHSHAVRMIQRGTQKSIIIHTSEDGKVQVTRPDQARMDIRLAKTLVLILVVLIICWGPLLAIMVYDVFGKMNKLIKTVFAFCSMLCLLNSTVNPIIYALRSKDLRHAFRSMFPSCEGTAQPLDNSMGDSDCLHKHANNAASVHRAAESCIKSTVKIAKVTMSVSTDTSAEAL
smiles,measurement,setting,value
"CCCCCCC(C)(C)c1ccc([C@@H]2C[C@H](O)CC[C@H]2CCCO)c(O)c1 [CP55,940, 2-[(1R,2R,5R)-5-hydroxy-2-(3-hydroxypropyl)cyclohexyl]-5-(2-methyloctan-2-yl)phenol]",Emax,[1],106 ± 11.4%
same,"CB1R internalization, agonist alone",[2],sustained CB1R internalization beginning at 30 min

# Reference: publication PMC5358098 (ACS chemical neuroscience, 2016)
